In ChEMBL document CHEMBL5705893, “Targeting the mitotic checkpoint for cancer therapy with NMS-P715, an inhibitor of MPS1 kinase” (Cancer Res, 2010):
Each block holds one compound with its values, some of them ahead of it.

Legend:
[1] = biological target: T1, Dual specificity protein kinase TTK (Homo sapiens, UniProt P33981); assay: Inhibition of MPS1 in human taxol-arrested U2OS cells assessed as effect on histone H3 phosphorylation at ser10 residue incubated for 2 hrs by arrayscan analysis; type: cell-based
T1 sequence (P33981 whole entry): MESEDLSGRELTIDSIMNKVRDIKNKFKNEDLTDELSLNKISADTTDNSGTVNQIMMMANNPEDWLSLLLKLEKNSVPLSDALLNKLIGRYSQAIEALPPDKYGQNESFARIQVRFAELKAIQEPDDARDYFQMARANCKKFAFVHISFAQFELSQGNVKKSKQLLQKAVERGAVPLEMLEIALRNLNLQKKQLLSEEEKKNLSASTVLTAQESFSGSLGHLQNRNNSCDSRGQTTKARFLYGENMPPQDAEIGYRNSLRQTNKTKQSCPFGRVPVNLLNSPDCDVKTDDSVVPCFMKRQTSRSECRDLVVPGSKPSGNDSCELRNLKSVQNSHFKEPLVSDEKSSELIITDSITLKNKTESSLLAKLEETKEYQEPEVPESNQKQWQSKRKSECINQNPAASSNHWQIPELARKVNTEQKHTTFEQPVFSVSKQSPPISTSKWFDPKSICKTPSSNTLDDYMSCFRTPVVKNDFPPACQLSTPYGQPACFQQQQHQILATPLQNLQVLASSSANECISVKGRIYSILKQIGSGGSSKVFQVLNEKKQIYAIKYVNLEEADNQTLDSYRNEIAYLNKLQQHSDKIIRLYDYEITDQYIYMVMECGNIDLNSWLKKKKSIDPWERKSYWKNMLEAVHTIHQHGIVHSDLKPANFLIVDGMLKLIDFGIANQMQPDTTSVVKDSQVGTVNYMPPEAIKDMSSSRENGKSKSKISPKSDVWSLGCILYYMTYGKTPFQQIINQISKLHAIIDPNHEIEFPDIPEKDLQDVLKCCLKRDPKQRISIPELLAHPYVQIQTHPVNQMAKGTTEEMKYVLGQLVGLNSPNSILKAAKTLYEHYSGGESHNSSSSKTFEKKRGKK

[2] = Inhibition of recombinant ABL (unknown origin); design: species or system Homo sapiens
[3] = biological target: Serine/threonine-protein kinase NIM1 (Homo sapiens, UniProt Q8IY84); assay: Inhibition of recombinant NIM1 (unknown origin)
[4] = biological target: Tyrosine-protein kinase JAK1 (Homo sapiens, UniProt P23458); assay: Inhibition of recombinant JAK1 (unknown origin)
[5] = biological target: Receptor-type tyrosine-protein kinase FLT3 (Homo sapiens, UniProt P36888); assay: Inhibition of recombinant FLT3 (unknown origin)
[6] = biological target: Serine/threonine-protein kinase haspin (Homo sapiens, UniProt Q8TF76); assay: Inhibition of recombinant Haspin (unknown origin)
[7] = biological target: Serine/threonine-protein kinase pim-1 (Homo sapiens, UniProt P11309); assay: Inhibition of recombinant PIM1 (unknown origin)
[8] = biological target: T1, Dual specificity protein kinase TTK; assay: Inhibition of recombinant MPS1 (unknown origin)
[9] = biological target: Vascular endothelial growth factor receptor 2 (Homo sapiens, UniProt P35968); assay: Inhibition of recombinant VEGFR2 (unknown origin)
[10] = biological target: Serine/threonine-protein kinase PLK1 (Homo sapiens, UniProt P53350); assay: Inhibition of recombinant PLK1 (unknown origin)
[11] = biological target: MAP kinase-activated protein kinase 2 (Homo sapiens, UniProt P49137); assay: Inhibition of recombinant MAPKAPK2 (unknown origin)
[12] = biological target: Maternal embryonic leucine zipper kinase (Homo sapiens, UniProt Q14680); assay: Inhibition of recombinant MELK (unknown origin)
[13] = biological target: Tyrosine-protein kinase Lck (Homo sapiens, UniProt P06239); assay: Inhibition of recombinant LCK (unknown origin)
[14] = biological target: Serine/threonine-protein kinase pim-2 (Homo sapiens, UniProt Q9P1W9); assay: Inhibition of recombinant PIM2 (unknown origin)
[15] = biological target: ALK tyrosine kinase receptor (Homo sapiens, UniProt Q9UM73); assay: Inhibition of recombinant ALK (unknown origin)
[16] = biological target: Vascular endothelial growth factor receptor 3 (Homo sapiens, UniProt P35916); assay: Inhibition of recombinant VEGFR3 (unknown origin)
[17] = biological target: Protein kinase C beta type (Homo sapiens, UniProt P05771); assay: Inhibition of recombinant PKCbeta (unknown origin)
[18] = biological target: CDC7/DBF4 (Cell division cycle 7-related protein kinase/Activator of S phase kinase) (Homo sapiens, UniProt O00311); assay: Inhibition of recombinant CDC7/DBF4 (unknown origin); type: protein-complex assay
Sequence of CDC7/DBF4 (Cell division cycle 7-related protein kinase/Activator of S phase kinase) (Q9UBU7 whole entry): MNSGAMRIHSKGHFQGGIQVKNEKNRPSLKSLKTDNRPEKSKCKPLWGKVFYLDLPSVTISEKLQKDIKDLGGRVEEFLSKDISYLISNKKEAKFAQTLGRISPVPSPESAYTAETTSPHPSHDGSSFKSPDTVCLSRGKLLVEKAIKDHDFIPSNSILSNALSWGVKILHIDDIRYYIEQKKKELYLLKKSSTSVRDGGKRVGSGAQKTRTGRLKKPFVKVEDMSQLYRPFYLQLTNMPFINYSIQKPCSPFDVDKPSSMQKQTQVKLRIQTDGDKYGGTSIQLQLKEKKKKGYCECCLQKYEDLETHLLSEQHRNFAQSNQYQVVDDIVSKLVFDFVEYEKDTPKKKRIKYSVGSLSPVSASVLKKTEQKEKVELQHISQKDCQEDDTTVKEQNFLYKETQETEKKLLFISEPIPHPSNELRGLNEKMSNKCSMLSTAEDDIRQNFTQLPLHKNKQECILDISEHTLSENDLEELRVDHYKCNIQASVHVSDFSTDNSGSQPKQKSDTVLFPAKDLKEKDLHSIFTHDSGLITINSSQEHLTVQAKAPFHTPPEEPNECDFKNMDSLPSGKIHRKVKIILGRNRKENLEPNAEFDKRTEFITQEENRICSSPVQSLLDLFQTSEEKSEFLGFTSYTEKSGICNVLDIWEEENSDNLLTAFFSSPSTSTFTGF
Sequence of CDC7/DBF4 (Cell division cycle 7-related protein kinase/Activator of S phase kinase) (O00311 whole entry): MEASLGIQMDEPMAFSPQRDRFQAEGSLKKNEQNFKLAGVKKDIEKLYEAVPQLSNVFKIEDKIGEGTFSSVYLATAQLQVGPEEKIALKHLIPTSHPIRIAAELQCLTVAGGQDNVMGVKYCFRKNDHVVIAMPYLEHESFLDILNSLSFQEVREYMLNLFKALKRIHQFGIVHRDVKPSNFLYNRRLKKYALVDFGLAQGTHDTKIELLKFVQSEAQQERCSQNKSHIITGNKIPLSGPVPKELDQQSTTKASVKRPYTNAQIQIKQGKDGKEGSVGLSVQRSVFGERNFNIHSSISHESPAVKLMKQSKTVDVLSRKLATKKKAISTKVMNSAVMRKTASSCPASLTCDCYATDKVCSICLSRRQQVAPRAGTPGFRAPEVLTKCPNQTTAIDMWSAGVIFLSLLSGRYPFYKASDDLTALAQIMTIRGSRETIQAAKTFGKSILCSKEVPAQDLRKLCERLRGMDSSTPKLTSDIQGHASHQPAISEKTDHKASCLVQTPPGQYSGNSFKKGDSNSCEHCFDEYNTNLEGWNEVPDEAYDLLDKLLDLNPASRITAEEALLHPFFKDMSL

[19] = biological target: Non-receptor tyrosine-protein kinase TYK2 (Homo sapiens, UniProt P29597); assay: Inhibition of recombinant TYK 2 (unknown origin)
[20] = biological target: Glycogen synthase kinase-3 beta (Homo sapiens, UniProt P49841); assay: Inhibition of recombinant GSK3beta (unknown origin)
[21] = biological target: Serine/threonine-protein kinase PAK 4 (Homo sapiens, UniProt O96013); assay: Inhibition of recombinant PAK4 (unknown origin)
[22] = biological target: High affinity nerve growth factor receptor (Homo sapiens, UniProt P04629); assay: Inhibition of recombinant TRKA (unknown origin)
[23] = Inhibition of recombinant AUR2 (unknown origin); design: species or system Homo sapiens
Casein kinase 2 = Casein kinase 2 (Homo sapiens, UniProt P67870+P68400+P19784+Q8NEV1); assay: Inhibition of recombinant CK2 (unknown origin); type: protein assay
[24] = biological target: Eukaryotic elongation factor 2 kinase (Homo sapiens, UniProt O00418); assay: Inhibition of recombinant EEF2K (unknown origin)
[25] = biological target: Serine/threonine-protein kinase Chk1 (Homo sapiens, UniProt O14757); assay: Inhibition of recombinant CHK1 (unknown origin)
[26] = biological target: Fibroblast growth factor receptor 1 (Homo sapiens, UniProt P11362); assay: Inhibition of recombinant FGFR1 (unknown origin)
[27] = biological target: Mast/stem cell growth factor receptor Kit (Homo sapiens, UniProt P10721); assay: Inhibition of recombinant KIT (unknown origin)
Sequence of Mast/stem cell growth factor receptor Kit (P10721 whole entry): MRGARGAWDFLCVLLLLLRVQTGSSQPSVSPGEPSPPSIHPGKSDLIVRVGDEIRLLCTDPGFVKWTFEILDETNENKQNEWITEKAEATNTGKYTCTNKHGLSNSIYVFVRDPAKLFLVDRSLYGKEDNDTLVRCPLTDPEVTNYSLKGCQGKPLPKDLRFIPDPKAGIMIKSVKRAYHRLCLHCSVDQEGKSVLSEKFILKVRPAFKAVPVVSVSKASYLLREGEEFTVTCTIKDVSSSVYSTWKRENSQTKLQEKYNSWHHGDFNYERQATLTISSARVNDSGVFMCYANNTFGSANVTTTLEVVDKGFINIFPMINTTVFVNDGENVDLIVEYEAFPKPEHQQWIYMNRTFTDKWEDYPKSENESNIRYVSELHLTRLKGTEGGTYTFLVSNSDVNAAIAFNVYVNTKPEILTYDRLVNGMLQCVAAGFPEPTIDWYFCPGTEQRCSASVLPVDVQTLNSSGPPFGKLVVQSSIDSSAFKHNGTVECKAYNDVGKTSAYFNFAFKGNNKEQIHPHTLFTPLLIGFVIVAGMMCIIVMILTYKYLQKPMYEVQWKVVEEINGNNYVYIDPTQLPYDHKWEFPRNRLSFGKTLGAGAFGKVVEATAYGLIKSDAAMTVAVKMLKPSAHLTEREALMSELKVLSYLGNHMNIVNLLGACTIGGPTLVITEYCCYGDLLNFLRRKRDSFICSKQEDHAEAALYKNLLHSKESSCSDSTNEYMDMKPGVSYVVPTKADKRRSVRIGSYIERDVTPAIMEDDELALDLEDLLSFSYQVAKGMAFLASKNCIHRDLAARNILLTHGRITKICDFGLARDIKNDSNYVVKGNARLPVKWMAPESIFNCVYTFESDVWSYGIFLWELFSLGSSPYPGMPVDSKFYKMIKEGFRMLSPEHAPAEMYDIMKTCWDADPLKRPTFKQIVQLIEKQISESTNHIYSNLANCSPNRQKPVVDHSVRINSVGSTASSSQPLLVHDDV

[28] = Inhibition of recombinant PDGFR (unknown origin); design: species or system Homo sapiens
[29] = Inhibition of recombinant AUR1 (unknown origin); design: species or system Homo sapiens
[30] = biological target: RAC-alpha serine/threonine-protein kinase (Homo sapiens, UniProt P31749); assay: Inhibition of recombinant AKT1 (unknown origin)
[31] = biological target: Proto-oncogene tyrosine-protein kinase receptor Ret (Homo sapiens, UniProt P07949); assay: Inhibition of recombinant RET (unknown origin)
[32] = Inhibition of recombinant SULU1 (unknown origin); design: species or system Homo sapiens
[33] = biological target: Eukaryotic translation initiation factor 2-alpha kinase 3 (Homo sapiens, UniProt Q9NZJ5); assay: Inhibition of recombinant PERK (unknown origin)
Sequence of Eukaryotic translation initiation factor 2-alpha kinase 3 (Q9NZJ5 whole entry): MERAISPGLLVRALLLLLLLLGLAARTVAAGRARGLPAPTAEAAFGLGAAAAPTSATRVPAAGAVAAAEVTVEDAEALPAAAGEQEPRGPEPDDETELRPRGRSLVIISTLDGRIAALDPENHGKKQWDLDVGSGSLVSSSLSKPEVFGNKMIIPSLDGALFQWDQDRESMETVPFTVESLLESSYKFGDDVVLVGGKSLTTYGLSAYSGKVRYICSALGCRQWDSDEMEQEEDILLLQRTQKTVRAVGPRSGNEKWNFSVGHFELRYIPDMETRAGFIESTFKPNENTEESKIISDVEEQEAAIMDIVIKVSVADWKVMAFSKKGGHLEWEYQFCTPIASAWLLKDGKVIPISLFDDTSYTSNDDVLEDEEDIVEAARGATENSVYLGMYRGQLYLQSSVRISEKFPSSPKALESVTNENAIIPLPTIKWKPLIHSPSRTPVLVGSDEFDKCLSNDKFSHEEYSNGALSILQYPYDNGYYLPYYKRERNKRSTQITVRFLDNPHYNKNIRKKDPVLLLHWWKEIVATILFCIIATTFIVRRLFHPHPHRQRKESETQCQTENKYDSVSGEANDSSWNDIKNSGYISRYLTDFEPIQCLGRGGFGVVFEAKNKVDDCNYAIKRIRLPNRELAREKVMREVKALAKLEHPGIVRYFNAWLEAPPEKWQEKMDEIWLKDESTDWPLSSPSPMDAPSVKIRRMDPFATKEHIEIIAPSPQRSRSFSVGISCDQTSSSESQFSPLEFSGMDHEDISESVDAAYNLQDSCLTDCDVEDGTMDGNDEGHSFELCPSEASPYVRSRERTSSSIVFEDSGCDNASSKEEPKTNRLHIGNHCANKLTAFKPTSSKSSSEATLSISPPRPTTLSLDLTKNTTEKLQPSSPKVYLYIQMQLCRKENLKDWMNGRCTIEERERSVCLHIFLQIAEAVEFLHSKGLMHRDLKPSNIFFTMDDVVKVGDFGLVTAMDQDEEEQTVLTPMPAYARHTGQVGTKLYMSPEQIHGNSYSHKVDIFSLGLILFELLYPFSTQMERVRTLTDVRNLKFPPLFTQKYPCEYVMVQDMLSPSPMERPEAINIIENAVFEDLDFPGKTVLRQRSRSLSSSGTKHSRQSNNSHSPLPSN

[34] = biological target: Serine/threonine-protein kinase 26 (Homo sapiens, UniProt Q9P289); assay: Inhibition of recombinant MST4 (unknown origin)
Sequence of Serine/threonine-protein kinase 26 (Q9P289 whole entry): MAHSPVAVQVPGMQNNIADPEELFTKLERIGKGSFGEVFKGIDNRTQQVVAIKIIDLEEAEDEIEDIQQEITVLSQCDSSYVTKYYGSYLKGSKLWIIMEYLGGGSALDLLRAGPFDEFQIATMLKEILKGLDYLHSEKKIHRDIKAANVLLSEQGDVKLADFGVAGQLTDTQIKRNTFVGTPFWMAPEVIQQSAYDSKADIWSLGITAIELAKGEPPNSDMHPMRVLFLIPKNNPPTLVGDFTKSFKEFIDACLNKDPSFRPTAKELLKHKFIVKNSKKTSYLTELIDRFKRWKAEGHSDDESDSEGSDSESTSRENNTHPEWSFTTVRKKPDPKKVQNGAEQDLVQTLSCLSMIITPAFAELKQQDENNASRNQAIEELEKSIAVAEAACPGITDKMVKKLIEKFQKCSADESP

[35] = biological target: Mitogen-activated protein kinase 1 (Homo sapiens, UniProt P28482); assay: Inhibition of recombinant ERK2 (unknown origin)
[36] = biological target: Tyrosine-protein kinase ZAP-70 (Homo sapiens, UniProt P43403); assay: Inhibition of recombinant ZAP70 (unknown origin)
Insulin receptor = Insulin receptor (Homo sapiens, UniProt P06213); assay: Inhibition of recombinant IR (unknown origin)
[37] = biological target: Tyrosine-protein kinase Lyn (Homo sapiens, UniProt P07948); assay: Inhibition of recombinant LYN (unknown origin)
Activated CDC42 kinase 1 = Activated CDC42 kinase 1 (Homo sapiens, UniProt Q07912); assay: Inhibition of recombinant ACK1 (unknown origin)
Sequence of Activated CDC42 kinase 1 (Q07912 whole entry): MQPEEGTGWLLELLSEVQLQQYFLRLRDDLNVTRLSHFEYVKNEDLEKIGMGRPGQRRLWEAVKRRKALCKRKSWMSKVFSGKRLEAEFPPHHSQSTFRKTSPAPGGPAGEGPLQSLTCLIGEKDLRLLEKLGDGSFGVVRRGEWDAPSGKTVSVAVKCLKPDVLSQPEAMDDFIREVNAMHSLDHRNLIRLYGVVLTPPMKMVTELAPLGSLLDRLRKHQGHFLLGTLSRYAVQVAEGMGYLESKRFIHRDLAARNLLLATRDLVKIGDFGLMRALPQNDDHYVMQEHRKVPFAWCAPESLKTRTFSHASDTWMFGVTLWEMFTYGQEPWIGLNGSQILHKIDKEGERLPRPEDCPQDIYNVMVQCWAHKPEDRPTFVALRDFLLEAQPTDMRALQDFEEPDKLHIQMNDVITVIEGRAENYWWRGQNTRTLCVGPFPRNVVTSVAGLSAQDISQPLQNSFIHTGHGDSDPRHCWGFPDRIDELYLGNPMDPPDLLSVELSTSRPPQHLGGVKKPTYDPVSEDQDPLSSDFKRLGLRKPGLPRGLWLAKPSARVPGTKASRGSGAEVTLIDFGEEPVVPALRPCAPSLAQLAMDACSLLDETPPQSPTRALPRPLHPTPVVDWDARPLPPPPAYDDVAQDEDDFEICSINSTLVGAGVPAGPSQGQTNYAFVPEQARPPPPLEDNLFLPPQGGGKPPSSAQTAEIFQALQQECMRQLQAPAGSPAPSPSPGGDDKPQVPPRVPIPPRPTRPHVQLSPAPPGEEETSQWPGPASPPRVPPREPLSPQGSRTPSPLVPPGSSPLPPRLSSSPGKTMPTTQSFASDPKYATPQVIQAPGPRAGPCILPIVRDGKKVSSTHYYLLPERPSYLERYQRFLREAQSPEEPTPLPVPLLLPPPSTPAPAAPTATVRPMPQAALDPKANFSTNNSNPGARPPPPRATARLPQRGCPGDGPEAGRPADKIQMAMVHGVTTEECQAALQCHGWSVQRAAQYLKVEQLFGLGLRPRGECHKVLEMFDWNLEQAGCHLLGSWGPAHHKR

[38] = biological target: Protein-tyrosine kinase 6 (Homo sapiens, UniProt Q13882); assay: Inhibition of recombinant BRK (unknown origin)
[39] = biological target: Mitotic checkpoint serine/threonine-protein kinase BUB1 (Homo sapiens, UniProt O43683); assay: Inhibition of recombinant BUB1 (unknown origin)
[40] = biological target: Serine/threonine-protein kinase Nek6 (Homo sapiens, UniProt Q9HC98); assay: Inhibition of recombinant NEK6 (unknown origin)
[41] = biological target: Tyrosine-protein kinase JAK3 (Homo sapiens, UniProt P52333); assay: Inhibition of recombinant JAK3 (unknown origin)
[42] = biological target: Inhibitor of nuclear factor kappa-B kinase subunit beta (Homo sapiens, UniProt O14920); assay: Inhibition of recombinant IKK2 (unknown origin)
Focal adhesion kinase 1 = Focal adhesion kinase 1 (Homo sapiens, UniProt Q05397); assay: Inhibition of recombinant FAK (unknown origin)

EC50 ([1]; u2os): 1990 nM
Compound: Cn1c2ccccc2c2c3c(c4c5ccccc5n(CCC#N)c4c21)CNC3=O [GO-6976]

IC50 [2]: > 10000 nM
IC50 [3]: > 10000 nM
IC50 [4]: 4650 nM
IC50 [5]: 90 nM
IC50 [6]: 510 nM
IC50 [7]: 3280 nM
IC50 [8]: 1950 nM
IC50 [9]: 2930 nM
IC50 [10]: > 10000 nM
IC50 [11]: > 10000 nM
IC50 [12]: 110 nM
IC50 [13]: > 10000 nM
IC50 [14]: 1050 nM
IC50 [15]: > 10000 nM
EC50 [1]: 8980 nM
IC50 [16]: 300 nM
IC50 [17]: > 10000 nM
IC50 [18]: 1590 nM
IC50 [19]: 880 nM
IC50 [20]: > 10000 nM
IC50 [21]: > 10000 nM
IC50 [22]: 70 nM
IC50 [23]: 190 nM
IC50 (Casein kinase 2): 650 nM
IC50 [24]: > 10000 nM
IC50 [25]: > 10000 nM
IC50 [26]: 2400 nM
IC50 [27]: 870 nM
IC50 [28]: > 10000 nM
IC50 [29]: 60 nM
IC50 [30]: > 10000 nM
IC50 [31]: 1090 nM
IC50 [32]: > 10000 nM
IC50 [33]: > 10000 nM
IC50 [34]: > 10000 nM
IC50 [35]: > 10000 nM
IC50 [36]: > 10000 nM
IC50 (Insulin receptor): 4010 nM
IC50 [37]: > 10000 nM
IC50 (Activated CDC42 kinase 1): 2290 nM
IC50 [38]: > 10000 nM
IC50 [39]: > 10000 nM
IC50 [40]: > 10000 nM
IC50 [41]: 410 nM
IC50 [42]: 1020 nM
IC50 (Focal adhesion kinase 1): 3860 nM
Compound: O=C1c2ccccc2-c2n[nH]c3cccc1c23

EC50 ([1]; u2os): 2280 nM
Compound: COc1cc2c(Nc3ccc(NC(=O)c4ccccc4)cc3)ncnc2cc1OCCCN1CCOCC1
